Experimental data as given in ChEMBL document CHEMBL1201862, “PubChem BioAssay data set” (2004).
The source made the active and inactive calls.

Key:
[1] = molecular target: Diphosphomevalonate decarboxylase (Streptococcus pneumoniae serotype 2 (strain D39 / NCTC 7466), UniProt Q9FD53); test: diphosphomevalonate decarboxylase inhibitor confirmation – biochemical, cuvette format, coupled NADH fluorescence (AID 1028); format: functional
[2] = molecular target: Nonstructural protein 1 (Influenza A virus, UniProt Q194T2); format: functional, Influenza A virus (A/California/07/2009(H1N1))
Nonstructural protein 1, sequence (Q194T2 whole entry): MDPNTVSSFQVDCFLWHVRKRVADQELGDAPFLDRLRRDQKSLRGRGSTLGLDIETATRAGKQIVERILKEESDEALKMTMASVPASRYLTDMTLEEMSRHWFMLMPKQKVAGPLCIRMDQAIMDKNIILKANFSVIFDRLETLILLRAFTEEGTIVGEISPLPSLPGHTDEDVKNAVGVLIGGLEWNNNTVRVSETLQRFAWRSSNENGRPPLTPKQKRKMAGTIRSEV

[3] = Luminescence-based dose response cell-based high throughput screening assay for cytotoxic compounds using the IEC-6 intestinal epithelial cell line. [Related pubchem assays: 1858 (Summary AID.), 1825 (Counterscreen.), 1907 (Confirmation screen.)]; format: functional
[4] = system: HEK293; test: inhibition of NOD1-driven NF-kB reporter – cell-based, luminescence, uHTS, primary screen (AID 1578); format: functional; conditions: Homo sapiens
[5] = cells; format: functional, cell-based
[6] = reduction of Shn3 3'UTR-driven luciferase in osteoblasts – cell-based, Clone20 osteoblasts, firefly luciferase, cherry-picked, dose response (AID 624132); format: functional;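 further: firefly luciferase luminescence from reporter carrying the Shn3 3'UTR in osteoblasts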
[7] = system: HEK293; test: cells; format: functional, cell-based; conditions: Homo sapiens
[8] = loss of viability in HepG2 cells – cell-based, CellTiter-Glo, cherry-picked, cytotoxicity control for Shn3 inhibitor project, dose response (AID 624134); format: functional
[9] = non-specific 3'UTR reporter inhibition in Clone20-Shn3RL – cell-based, Renilla luciferase, cherry-picked, counter-screen for Shn3 inhibitor project, dose response (AID 624133); format: functional
[10] = cells; format: functional, cell-based; remark: listed apart in the source
[11] = system: HEK293; test: cells; format: functional, cell-based; conditions: Homo sapiens; remark: listed apart in the source
[12] = system: BJ; test: cells; format: functional, cell-based; conditions: Homo sapiens
[13] = system: HEK293; test: NOD2 signaling inhibitors in MDP-stimulated cells, cell-based, uHTS, luminescence (AID 2001); format: functional; conditions: Homo sapiens
[14] = system: BJ; test: BJ-TERT fibroblast viability loss – cell-based, RAS-independent, luminescence, dose response (AID 1933); format: functional; conditions: Homo sapiens
[15] = system: INS1; test: INS-1E survival protection against cytokine death – cell-based, luminescence, retest, dose response (AID 449756); format: functional; conditions: Rattus norvegicus;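 further: cell death triggered by IL-1 beta plus TNF-alpha plus IFN-gamma mixture; protective hits raise ATP signal compared with cytokine alone wells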
[16] = molecular target: Nucleotide-binding oligomerization domain-containing protein 2 (Homo sapiens, UniProt Q9HC29); test: inhibition of NOD2-driven NF-kB reporter – cell-based, luminescence, uHTS, HEK293 (AID 1566); format: functional
Nucleotide-binding oligomerization domain-containing protein 2, sequence (Q9HC29 whole entry, the tested form may be a part): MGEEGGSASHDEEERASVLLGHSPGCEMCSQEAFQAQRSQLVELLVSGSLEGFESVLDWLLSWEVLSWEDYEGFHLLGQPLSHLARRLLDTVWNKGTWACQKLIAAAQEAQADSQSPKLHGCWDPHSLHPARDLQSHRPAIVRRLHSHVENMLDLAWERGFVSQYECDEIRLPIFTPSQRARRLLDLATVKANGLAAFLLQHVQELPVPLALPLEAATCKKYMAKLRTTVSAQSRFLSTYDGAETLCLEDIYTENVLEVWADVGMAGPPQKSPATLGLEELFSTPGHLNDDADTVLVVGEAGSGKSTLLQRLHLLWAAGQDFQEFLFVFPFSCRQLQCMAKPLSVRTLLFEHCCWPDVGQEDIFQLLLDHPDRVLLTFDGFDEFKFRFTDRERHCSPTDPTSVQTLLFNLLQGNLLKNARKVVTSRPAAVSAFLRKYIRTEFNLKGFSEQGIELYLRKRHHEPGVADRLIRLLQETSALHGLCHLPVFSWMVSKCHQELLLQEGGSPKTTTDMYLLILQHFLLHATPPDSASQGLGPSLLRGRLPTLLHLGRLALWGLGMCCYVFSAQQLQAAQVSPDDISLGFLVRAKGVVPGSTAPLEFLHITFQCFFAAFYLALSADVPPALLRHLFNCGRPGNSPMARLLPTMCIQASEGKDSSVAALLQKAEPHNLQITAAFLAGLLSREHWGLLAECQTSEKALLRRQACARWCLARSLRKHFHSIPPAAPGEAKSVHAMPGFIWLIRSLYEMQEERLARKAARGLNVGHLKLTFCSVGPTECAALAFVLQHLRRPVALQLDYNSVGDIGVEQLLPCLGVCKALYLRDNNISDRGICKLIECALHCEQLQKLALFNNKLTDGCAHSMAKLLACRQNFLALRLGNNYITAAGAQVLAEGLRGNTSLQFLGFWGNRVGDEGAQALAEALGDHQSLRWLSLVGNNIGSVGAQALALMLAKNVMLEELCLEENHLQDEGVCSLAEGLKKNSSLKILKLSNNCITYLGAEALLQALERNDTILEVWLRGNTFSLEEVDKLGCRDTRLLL

[17] = system: HEK293; test: cells; format: functional, cell-based; conditions: Homo sapiens; remark: listed apart in the source
[18] = system: BJ; test: BJ-TERT-LT-ST fibroblast viability loss – cell-based, RAS-independent, luminescence, dose response (AID 1935); format: functional; conditions: Homo sapiens;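 further: BJ fibroblasts immortalized with TERT plus LT and ST oncogenes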
[19] = DRD fibroblast viability loss – cell-based, non-viral oncogenic, luminescence, dose response (AID 1934); format: functional; conditions: Homo sapiens
[20] = system: HEK293; test: EBV LMP1 TES2 canonical NF-kB signalling blockers – cell-based, HEK293, luciferase, cherry-pick, dose response (AID 588343); format: functional; conditions: Homo sapiens
[21] = system: Vero; test: Vero cell viability after compound exposure – synthesized analogs, set II, cytotoxicity control for West Nile virus antiviral project, SAR follow-up (AID 2402); format: functional; conditions: Chlorocebus sabaeus
[22] = A Cell Based Secondary Assay To Explore Cytotoxicity of Compounds that Sensitize Mycobacterium Tuberculosis to Beta-Lactam Antibiotics.; format: functional
[23] = system: Vero; test: inhibition of WNV-induced cytopathic effect – cell-based, CPE readout (AID 1621); format: functional; conditions: Chlorocebus sabaeus
[24] = system: Vero; test: cells; format: functional, cell-based; conditions: Chlorocebus sabaeus
[25] = molecular target: Procathepsin L (Homo sapiens, UniProt P07711); test: CTSL1 protease inhibition – biochemical, QFRET, 1536-well, counter-screen for M1/M17 aminopeptidase inhibitor project, dose response (AID 2214)
Procathepsin L, sequence (P07711 whole entry): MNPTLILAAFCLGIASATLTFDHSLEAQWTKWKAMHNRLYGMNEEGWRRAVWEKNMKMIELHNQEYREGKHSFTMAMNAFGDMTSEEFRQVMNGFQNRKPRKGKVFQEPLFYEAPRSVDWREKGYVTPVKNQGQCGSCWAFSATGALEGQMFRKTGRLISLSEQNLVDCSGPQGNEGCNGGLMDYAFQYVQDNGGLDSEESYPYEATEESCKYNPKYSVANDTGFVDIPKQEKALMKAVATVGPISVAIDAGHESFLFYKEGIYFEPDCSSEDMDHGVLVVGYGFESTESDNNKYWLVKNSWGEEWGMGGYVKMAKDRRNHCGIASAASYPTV

[26] = molecular target: T1, Aminopeptidase N (Plasmodium falciparum FcB1/Columbia, UniProt O96935); test: malaria alanyl aminopeptidase activity blockers – biochemical, fluorogenic H-Leu-NHMec substrate, 1536-well (AID 1445); parameters: species or system Plasmodium falciparum 3D7, 3D7
T1 sequence (O96935 whole entry): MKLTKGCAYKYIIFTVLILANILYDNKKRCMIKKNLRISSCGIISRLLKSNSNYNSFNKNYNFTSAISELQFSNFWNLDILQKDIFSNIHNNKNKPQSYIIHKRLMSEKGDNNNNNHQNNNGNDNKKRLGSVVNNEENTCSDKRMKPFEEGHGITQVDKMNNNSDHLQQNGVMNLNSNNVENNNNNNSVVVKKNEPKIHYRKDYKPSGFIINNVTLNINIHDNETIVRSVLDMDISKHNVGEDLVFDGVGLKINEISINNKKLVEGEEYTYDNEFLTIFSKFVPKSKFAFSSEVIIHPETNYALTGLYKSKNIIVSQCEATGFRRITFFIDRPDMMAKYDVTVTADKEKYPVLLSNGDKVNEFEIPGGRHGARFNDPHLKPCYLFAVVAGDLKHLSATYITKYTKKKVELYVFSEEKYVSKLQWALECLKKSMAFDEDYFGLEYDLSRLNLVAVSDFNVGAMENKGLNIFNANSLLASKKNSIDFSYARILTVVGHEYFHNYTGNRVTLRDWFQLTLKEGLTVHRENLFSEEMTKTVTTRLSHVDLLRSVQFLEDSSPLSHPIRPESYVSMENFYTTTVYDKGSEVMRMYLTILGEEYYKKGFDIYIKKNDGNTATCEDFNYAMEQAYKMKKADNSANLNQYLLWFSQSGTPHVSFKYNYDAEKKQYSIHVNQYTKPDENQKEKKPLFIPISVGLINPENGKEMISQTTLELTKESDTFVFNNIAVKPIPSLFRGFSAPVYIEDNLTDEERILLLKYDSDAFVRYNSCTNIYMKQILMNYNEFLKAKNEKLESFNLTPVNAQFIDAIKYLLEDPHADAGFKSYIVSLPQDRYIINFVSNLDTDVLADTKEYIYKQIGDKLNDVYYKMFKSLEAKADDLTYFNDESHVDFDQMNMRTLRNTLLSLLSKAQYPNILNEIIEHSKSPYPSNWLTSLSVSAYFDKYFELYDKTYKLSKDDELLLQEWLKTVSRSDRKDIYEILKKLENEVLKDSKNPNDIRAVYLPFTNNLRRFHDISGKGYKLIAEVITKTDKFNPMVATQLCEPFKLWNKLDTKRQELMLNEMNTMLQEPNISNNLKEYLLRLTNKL

[27] = molecular target: Aspartyl aminopeptidase (Plasmodium falciparum 3D7, UniProt Q8I2J3); test: Counterscreen for inhibitors of M1 and M17 aminopeptidases: QFRET-based biochemical high throughput dose response assay for inhibitors of the Plasmodium falciparum M18 Aspartyl Aminopeptidase (PFM18AAP). [Related PubChem assays: 1619 (Screening assay (M17LAP inhibitors).), 1445 (Screening assay (M1AAP inhibitors).)]
Aspartyl aminopeptidase, sequence (Q8I2J3 whole entry): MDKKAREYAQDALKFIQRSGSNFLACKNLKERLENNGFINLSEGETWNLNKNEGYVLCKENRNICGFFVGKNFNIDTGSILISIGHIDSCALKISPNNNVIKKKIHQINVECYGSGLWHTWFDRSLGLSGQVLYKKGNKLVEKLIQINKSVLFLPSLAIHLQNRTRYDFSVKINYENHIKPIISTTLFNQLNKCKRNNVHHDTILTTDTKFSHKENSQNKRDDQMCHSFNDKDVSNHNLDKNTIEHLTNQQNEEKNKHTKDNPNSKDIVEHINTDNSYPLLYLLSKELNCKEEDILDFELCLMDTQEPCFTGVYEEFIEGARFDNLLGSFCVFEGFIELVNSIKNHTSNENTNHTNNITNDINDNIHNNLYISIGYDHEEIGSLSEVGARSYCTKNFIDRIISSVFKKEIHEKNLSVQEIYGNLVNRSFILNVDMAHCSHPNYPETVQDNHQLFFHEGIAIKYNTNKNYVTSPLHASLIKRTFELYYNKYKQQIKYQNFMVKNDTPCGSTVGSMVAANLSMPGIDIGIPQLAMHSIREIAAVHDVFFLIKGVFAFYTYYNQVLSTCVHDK

[28] = molecular target: Cytochrome P450 2C9 (Homo sapiens, UniProt P11712); conditions: Potency
Cytochrome P450 2C9, sequence (P11712 whole entry): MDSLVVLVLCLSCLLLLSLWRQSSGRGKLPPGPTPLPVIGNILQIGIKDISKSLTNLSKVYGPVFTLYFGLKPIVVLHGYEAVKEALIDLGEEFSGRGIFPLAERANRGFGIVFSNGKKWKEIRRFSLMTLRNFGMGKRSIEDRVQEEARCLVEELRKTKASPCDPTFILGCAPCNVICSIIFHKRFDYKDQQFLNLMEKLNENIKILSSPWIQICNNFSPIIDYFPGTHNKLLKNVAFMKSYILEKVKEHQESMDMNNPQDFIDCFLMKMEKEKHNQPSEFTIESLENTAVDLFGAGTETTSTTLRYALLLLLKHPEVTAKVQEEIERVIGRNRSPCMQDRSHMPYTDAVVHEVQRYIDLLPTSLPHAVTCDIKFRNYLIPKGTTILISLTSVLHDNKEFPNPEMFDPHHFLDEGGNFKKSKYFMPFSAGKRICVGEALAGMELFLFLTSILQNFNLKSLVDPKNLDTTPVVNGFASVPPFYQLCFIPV

[29] = molecular target: Cytochrome P450 2C19 (Homo sapiens, UniProt P33261); test: qHTS Assay for Inhibitors and Substrates of Cytochrome P450 2C19. [Related pubchem assays: 410 ]; format: ADME; conditions: read-out: Potency
Cytochrome P450 2C19, sequence (P33261 whole entry): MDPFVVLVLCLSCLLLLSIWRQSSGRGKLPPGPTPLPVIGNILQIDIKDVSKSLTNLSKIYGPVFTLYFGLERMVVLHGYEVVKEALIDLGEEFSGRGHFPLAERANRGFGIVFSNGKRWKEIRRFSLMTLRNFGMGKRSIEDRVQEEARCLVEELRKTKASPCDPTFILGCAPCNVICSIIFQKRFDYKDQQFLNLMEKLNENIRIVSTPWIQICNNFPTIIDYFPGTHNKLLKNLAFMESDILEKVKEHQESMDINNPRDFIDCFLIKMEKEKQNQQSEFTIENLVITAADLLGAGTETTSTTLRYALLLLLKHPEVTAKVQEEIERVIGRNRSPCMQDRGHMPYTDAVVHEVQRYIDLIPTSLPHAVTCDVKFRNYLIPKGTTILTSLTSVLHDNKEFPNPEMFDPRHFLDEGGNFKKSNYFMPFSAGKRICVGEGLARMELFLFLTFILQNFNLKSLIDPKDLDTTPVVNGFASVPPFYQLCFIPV

[30] = Luminescence Cell-Based Dose Confirmation HTS to Identify Activators of 5'UTR Stem-Loop Driven Alpha-Synuclein mRNA Translation in H4 Neuroglioblastoma Cells. [Related pubchem assays: 1829 (Project Summary), 1814 (Primary HTS)]; format: functional
[31] = Luminescence Cell-Based Dose Response to Identify Activators of Luciferase Translation or Activity in H4-C Neuroglioblastoma Cells. [Related pubchem assays: 1829 (Project Summary), 1814 (Primary HTS)]; format: functional
[32] = Luminescence Cell-Based Dose Response to Identify Activators of 5'UTR Stem-Loop Driven Prion Protein mRNA Translation in H4-C Neuroglioblastoma Cells. [Related pubchem assays: 1829 (Project Summary), 1814 (Primary HTS)]; format: functional
[33] = Luminescence Cell-Based Dose Confirmation to Identify Activators of 5'UTR Stem-Loop Driven Alpha-Synuclein mRNA Translation in H4 Neuroglioblastoma Cells. [Related pubchem assays: 1829 (Project Summary), 1814 (Primary HTS)]; format: functional
[34] = system: H4; test: Luminescence Cell-Based Dose Response HTS to Identify Activators of 5'UTR Stem-Loop Driven Prion Protein mRNA Translation in H4 Neuroglioblastoma Cells. [Related pubchem assays: 1829 (Project Summary), 1814 (Primary HTS)]; format: functional; conditions: Homo sapiens
[35] = molecular target: Voltage-gated inwardly rectifying potassium channel KCNH2 (Homo sapiens, UniProt Q12809); test: concentration-dependent hERG rescue from blockers – cell-based, thallium flux, dose response (AID 2121); format: ADME
Voltage-gated inwardly rectifying potassium channel KCNH2, sequence (Q12809 whole entry): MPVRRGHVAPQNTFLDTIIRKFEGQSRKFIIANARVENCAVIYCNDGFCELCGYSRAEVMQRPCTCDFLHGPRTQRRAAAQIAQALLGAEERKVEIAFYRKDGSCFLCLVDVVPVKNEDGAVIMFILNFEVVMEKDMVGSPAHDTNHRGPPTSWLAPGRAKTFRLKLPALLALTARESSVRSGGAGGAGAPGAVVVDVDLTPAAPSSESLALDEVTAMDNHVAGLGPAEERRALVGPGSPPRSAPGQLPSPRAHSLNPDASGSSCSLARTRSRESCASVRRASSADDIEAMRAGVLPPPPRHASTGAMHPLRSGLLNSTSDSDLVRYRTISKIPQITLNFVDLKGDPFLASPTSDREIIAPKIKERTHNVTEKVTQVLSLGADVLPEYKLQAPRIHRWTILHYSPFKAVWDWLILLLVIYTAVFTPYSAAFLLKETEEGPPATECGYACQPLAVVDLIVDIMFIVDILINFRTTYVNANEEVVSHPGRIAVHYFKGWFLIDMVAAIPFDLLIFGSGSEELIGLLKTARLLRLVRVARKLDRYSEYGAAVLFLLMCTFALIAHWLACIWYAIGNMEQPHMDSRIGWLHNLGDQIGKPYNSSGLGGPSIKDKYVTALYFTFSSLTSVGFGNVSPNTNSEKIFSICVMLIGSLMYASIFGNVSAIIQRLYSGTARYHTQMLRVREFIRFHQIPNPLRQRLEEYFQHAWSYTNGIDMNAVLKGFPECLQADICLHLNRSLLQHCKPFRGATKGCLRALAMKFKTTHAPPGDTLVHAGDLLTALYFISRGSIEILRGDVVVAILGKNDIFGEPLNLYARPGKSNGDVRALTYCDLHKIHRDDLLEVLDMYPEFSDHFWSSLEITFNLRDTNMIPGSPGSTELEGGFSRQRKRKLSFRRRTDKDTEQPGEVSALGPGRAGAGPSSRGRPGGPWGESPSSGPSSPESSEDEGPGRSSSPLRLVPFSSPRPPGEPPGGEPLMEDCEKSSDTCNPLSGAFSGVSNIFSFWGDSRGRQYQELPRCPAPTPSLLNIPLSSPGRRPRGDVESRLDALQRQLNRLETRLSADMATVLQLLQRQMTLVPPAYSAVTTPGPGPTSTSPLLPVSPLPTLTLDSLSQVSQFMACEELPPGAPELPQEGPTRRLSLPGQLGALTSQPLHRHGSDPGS

[36] = Luminescence Cell-Based Dose Response HTS to Identify Inhibitors of 5'UTR Stem-Loop Driven Prion Protein mRNA Translation in H4 Neuroglioblastoma Cells. [Related pubchem assays: 1827 (Project Summary), 1813 (Primary HTS)]; format: functional
[37] = molecular target: T2, Zinc finger protein mex-5 (Caenorhabditis elegans, UniProt Q9XUB2); test: potency of MEX-5 RNA-binding blockers – biochemical, C. elegans, fluorescence polarization, dose response (AID 1960)
T2 sequence (Q9XUB2 whole entry): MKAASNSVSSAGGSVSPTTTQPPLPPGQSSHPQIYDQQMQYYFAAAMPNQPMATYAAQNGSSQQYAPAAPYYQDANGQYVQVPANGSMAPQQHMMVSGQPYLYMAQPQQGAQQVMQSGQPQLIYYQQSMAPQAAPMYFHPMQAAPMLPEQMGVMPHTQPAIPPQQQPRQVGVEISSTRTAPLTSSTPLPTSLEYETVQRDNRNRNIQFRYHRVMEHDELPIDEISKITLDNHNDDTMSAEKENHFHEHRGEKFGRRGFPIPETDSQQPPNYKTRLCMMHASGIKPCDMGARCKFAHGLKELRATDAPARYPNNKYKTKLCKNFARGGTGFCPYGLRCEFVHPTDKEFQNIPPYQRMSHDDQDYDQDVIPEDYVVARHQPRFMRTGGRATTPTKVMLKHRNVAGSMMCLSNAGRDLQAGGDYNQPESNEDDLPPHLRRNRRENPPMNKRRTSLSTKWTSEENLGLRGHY

[38] = molecular target: Glucose-6-phosphate 1-dehydrogenase (Homo sapiens, UniProt P11413); test: inhibition of Homo sapiens G6PD, dose series – biochemical, fluorescence, selectivity assay for P. falciparum G6PD inhibitor project, dose response (AID 504792); format: functional
Glucose-6-phosphate 1-dehydrogenase, sequence (P11413 whole entry): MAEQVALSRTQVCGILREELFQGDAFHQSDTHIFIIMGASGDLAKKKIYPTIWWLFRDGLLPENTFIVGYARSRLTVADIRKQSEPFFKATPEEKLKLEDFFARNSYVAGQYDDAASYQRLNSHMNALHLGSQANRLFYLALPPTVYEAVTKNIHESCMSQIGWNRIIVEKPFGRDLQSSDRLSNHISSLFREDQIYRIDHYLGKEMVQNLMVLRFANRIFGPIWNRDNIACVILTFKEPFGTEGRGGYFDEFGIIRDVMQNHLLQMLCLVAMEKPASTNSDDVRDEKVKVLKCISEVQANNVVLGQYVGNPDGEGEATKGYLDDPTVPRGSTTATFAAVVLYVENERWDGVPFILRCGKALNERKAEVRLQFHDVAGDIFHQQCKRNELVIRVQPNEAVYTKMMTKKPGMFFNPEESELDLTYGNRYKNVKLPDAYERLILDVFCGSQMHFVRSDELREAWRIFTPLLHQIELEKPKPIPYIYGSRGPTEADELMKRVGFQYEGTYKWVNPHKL

[39] = alpha-synuclein stem-loop luciferase translation blockers – H4 neuroglioma cells, luminescence, confirmation (AID 1988); format: functional, cell-based
[40] = alpha-synuclein stem-loop translation blockers – luminescence, H4 neuroglioblastoma cells, dose confirmation, confirmation (AID 2454); format: functional, cell-based;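 further: H4 neuroglioblastoma cells carrying an alpha-synuclein 5'UTR luciferase reporter; potency for inhibition of the luciferase signal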
[41] = luciferase reporter signal suppression in cells – H4 neuroglioma cells, luminescence, dose response (AID 1990); format: functional, cell-based
[42] = molecular target: T3, RNA-binding protein pos-1 (Caenorhabditis elegans, UniProt G5EF15); test: disruptors of C. elegans POS-1 RNA interaction – biochemical, fluorescence polarization, dose response (AID 1964);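 further: purified POS-1 fused to maltose binding protein made in E. coli; potency of compounds blocking POS-1 binding to fluorescent RNA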
T3 sequence (G5EF15 whole entry): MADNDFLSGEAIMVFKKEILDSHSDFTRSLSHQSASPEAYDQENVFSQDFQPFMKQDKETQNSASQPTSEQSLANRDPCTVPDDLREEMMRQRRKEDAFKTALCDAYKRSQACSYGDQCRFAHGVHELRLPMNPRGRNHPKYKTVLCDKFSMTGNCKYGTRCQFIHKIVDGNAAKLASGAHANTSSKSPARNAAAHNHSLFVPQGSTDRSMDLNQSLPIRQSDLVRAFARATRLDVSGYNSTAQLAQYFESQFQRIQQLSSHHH

[43] = luciferase reporter signal reduction – luminescence, H4-C neuroglioblastoma cells, dose response (AID 2458); format: functional, cell-based;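 further: H4 neuroglioblastoma cells stably carrying a luciferase reporter gene fusion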

Cc1ccc(-n2sc3ccccc3c2=O)cc1C(=O)N1CCCCC1
IC50 [1]: 19.7 µM (active)

CC(=O)NC(c1cccc([N+](=O)[O-])c1)c1ccc2cccnc2c1O (stereo not drawn)
IC50 [2]: 9.19 µM (active) | IC50 [3]: 1.35 µM (active) | EC50 [4]: > 20 µM (inactive) | EC50 [5]: > 350 µM (not active) | AC50 [6]: 0.889 µM (active) | IC50 [7]: 19.8 µM (active) | AC50 [8]: 0.887 µM (active) | AC50 [9]: > 70 µM (inactive) | EC50 [10]: 4.94 µM (active) | IC50 [11]: > 20 µM (inactive) | EC50 [12]: 10.7 µM (active) | IC50 [13]: > 20 µM (inactive) | EC50 [14]: 1.7 µM (inconclusive) | AC50 [15]: 0.521 µM (active) | EC50 [16]: > 20 µM (inactive) | IC50 [17]: > 20 µM (inactive) | EC50 [18]: 7.23 µM (inconclusive) | EC50 [19]: 1.96 µM (inconclusive) | AC50 [20]: 4.67 µM (active)

OC1c2c(F)cccc2N=C2CCCN21 (stereo not drawn)
CC50 [21]: > 200 µM (active)

NC1=C(c2nc(-c3ccc(Cl)cc3)cs2)C(=O)CN1CCCN1CCOCC1
CC50 [22]: > 40 µM (active) | IC50 [23]: 24.2 µM (active) | IC50 [24]: 22 µM (active)

COc1ccc(OC)c(/C=C2\SC(=S)N(C(C(=O)O)c3ccccc3)C2=O)c1 (stereo not drawn)
IC50 [25]: > 59.6 µM (not active) | IC50 [26]: 12.1 µM (active) | IC50 [27]: > 73.5 µM (not active)

CC(C)C[C@@H](CC(=O)N[C@@H](CCC(=O)O)CC(=O)O)NC(=O)[C@@H]1CNCC[C@H]1NC(=O)C[C@H](CCCN)NC(=O)C[C@H](CO)NC(=O)[C@@H]1CNCC[C@H]1N
AC50 [28]: 25.1 µM (inconclusive) | AC50 [29]: 31.6 µM (inconclusive)

Cc1cc(-c2nnc(S)o2)c(C)n1-c1ccccc1
EC50 [30]: < 0.1 µM (active) | EC50 [31]: > 12 µM (not active) | EC50 [32]: 2.02 µM (active) | EC50 [33]: 1.19 µM (active) | EC50 [34]: 75.3 µM (active)

CCOC(=O)N1CCN(C(=O)c2ccc(CN(c3ccc(C)c(C)c3)S(C)(=O)=O)cc2)CC1
EC50 [35]: 9.85 µM (active)

Cc1ccc2nc3sc(C(=O)N4CCOCC4)c(N)c3cc2c1
EC50 [36]: < 0.1 µM (active) | EC50 [37]: > 300 µM (inconclusive) | IC50 [38]: > 80 µM (inactive) | EC50 [39]: 2.37 µM (active) | EC50 [40]: 0.927 µM (active) | EC50 [41]: 2.01 µM (active) | EC50 [42]: 46.8 µM (active) | EC50 [43]: > 12 µM (inconclusive)
